Results on 33 compounds are retold here after patent US9221809B2 (MERCK SHARP & DOHME CORP., priority 2011, dated 2015).

Sequence of IRAK4 (Q9NWZ3 whole entry): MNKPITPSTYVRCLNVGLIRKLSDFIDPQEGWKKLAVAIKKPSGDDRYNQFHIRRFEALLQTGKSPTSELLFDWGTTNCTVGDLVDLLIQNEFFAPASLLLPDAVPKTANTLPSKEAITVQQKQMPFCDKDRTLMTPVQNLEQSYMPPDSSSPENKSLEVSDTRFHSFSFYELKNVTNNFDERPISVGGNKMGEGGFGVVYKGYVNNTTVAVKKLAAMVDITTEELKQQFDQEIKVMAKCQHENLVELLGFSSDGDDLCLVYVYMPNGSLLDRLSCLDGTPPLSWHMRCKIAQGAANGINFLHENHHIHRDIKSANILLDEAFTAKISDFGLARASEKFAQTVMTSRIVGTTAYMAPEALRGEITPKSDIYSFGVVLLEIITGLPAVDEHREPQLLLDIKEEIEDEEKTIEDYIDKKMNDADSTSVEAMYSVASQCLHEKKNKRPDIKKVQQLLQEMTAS

For the first assay, the target named is IRAK4 (Homo sapiens (Human), UniProt Q9NWZ3). Nature of the assay: IRAK4 kinase activity, IMAP fluorescence polarization assay. Type of assay: biochemical. Particulars: 100 μM ATP, 0.5 nM GST tagged IRAK4; read-out: IRAK4 IC50. The method, boiled down:
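GST-tagged IRAK4 at 0.5 nM phosphorylates 100 nM fluorescent peptide substrate with 100 μM ATP in pH 7.2 Tris buffer containing MgCl2, DTT and Tween 20, 30 min at 25 °C. Reaction stopped with IMAP binding reagent; phosphorylation read as increased fluorescence polarization.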
On the technique in general: In fluorescence polarisation assays a small probe gives low polarisation when free and higher when bound to something large.
The IC50 is the concentration that gives 50% inhibition. As for `O=c1[nH]c(N2CCOCC2)nc(N[C@@H]2CCCNC2)c1-c1csc(-n2cccc2)n1` [Example 214, (R)-5-(2-(1H-pyrrol-1-yl)thiazol-4-yl)-2-morpholino-6-(piperidin-3-ylamino)pyrimidin-4(3H)-one], the IC50 is 12 nM.

In the case of `O=c1[nH]c(N2CCOCC2)nc(N[C@@H]2CCCNC2)c1-c1ncc(F)cn1` [Example 220, (R)-5-fluoro-2′-morpholino-6′-(piperidin-3-ylamino)-[2,5′-bipyrimidin]-4′(3′H)-one], the IC50 is 220 nM.

Regarding `O=c1[nH]c(C2CCN(c3ccccn3)CC2)nc(N[C@@H]2CCCNC2)c1-c1nc2ccccc2s1` [Example 242, (R)-5-(benzo[d]thiazol-2-yl)-6-(piperidin-3-ylamino)-2-(1-(pyridin-2-yl)piperidin-4-yl)pyrimidin-4(3H)-one], the half-inhibitory concentration (IC50) was found to be 180 nM.

Staying with this assay, now noted: 100 μM ATP; read-out: IC50.
Consider `C[C@H]1C[C@@H](Nc2nc(N3CCOCC3)[nH]c(=O)c2-c2nc3ccccc3s2)CN1` [Example 209, 5-(benzo[d]thiazol-2-yl)-6-(((3R,5S)-5-methylpyrrolidin-3-yl)amino)-2-morpholinopyrimidin-4(3H)-one], for which the IC50 is 359 nM.

`C[C@@H]1C[C@@H](Nc2nc(N3CCOCC3)[nH]c(=O)c2-c2nc3ccccc3s2)CN1` [Example 210, 5-(benzo[d]thiazol-2-yl)-6-(((3R,5R)-5-methylpyrrolidin-3-yl)amino)-2-morpholinopyrimidin-4(3H)-one]: the IC50 is 150 nM.

As to `O=c1[nH]c(N2CCOCC2)nc(N[C@@H]2C[C@@H]3CN[C@H]2C3)c1-c1nc2ccccc2s1` [Example 211, 6-((1S,4R,6R)-2-azabicyclo[2.2.1]heptan-6-ylamino)-5-(benzo[d]thiazol-2-yl)-2-morpholinopyrimidin-4(3H)-one], the IC50 stood at 191 nM.

Turning to `O=c1[nH]c(N2CCOCC2)nc(N[C@H]2CNCC(F)(F)C2)c1-c1nc2ccccc2s1` [Example 212, (R)-5-(benzo[d]thiazol-2-yl)-6-((5,5-difluoropiperidin-3-yl)amino)-2-morpholinopyrimidin-4(3H)-one], the IC50 came out at 792 nM.

Consider `O=c1[nH]c(N2CCOCC2)nc(N[C@H]2CNCC[C@@H]2F)c1-c1nc2ccccc2s1` [Example 213, 5-(benzo[d]thiazol-2-yl)-6-(((3S,4S)-4-fluoropiperidin-3-yl)amino)-2-morpholinopyrimidin-4(3H)-one], for which the IC50 was 14 nM.

Turning to `O=c1[nH]c(N2CCOCC2)nc(N[C@@H]2CCCNC2)c1-c1cccc(-n2cccc2)n1` [Example 215, (R)-5-(6-(1H-pyrrol-1-yl)pyridin-2-yl)-2-morpholino-6-(piperidin-3-ylamino)pyrimidin-4(3H)-one], the half-maximal inhibitory concentration (IC50) came out at 185 nM.

As for `O=C1CCCN1c1cccc(-c2c(N[C@@H]3CCCNC3)nc(N3CCOCC3)[nH]c2=O)n1` [Example 216, (R)-2-morpholino-5-(6-(2-oxopyrrolidin-1-yl)pyridin-2-yl)-6-(piperidin-3-ylamino)pyrimidin-4(3H)-one], the IC50 stood at 258 nM.

As for `O=c1[nH]c(N2CCOCC2)nc(N[C@@H]2CCCNC2)c1-c1csc(-n2cccn2)n1` [Example 217, (R)-5-(2-(1H-pyrazol-1-yl)thiazol-4-yl)-2-morpholino-6-(piperidin-3-ylamino)pyrimidin-4(3H)-one], the IC50 is 82 nM.

Regarding `O=c1[nH]c(N2CCOCC2)nc(N[C@@H]2CCCNC2)c1-c1csc(-c2ccccc2)n1` [Example 218, (R)-2-morpholino-5-(2-phenylthiazol-4-yl)-6-(piperidin-3-ylamino)pyrimidin-4(3H)-one], the IC50 turned out to be 7 nM.

Consider `O=c1[nH]c(N2CCOCC2)nc(N[C@@H]2CCCNC2)c1-c1csc(-n2ccnc2)n1` [Example 219, (R)-5-(2-(1H-imidazol-1-yl)thiazol-4-yl)-2-morpholino-6-(piperidin-3-ylamino)pyrimidin-4(3H)-one], for which the half-inhibitory concentration (IC50) came out at 4 nM.

As for `N#Cc1cccc(-c2c(N[C@@H]3CCCNC3)nc(N3CCOCC3)[nH]c2=O)n1` [Example 221, (R)-6-(2-morpholino-6-oxo-4-(piperidin-3-ylamino)-1,6-dihydropyrimidin-5-yl)picolinonitrile], the concentration for half-maximal inhibition (IC50) was found to be 167 nM.

As for `N#Cc1ccnc(-c2c(N[C@@H]3CCCNC3)nc(N3CCOCC3)[nH]c2=O)c1` [Example 222, (R)-2-(2-morpholino-6-oxo-4-(piperidin-3-ylamino)-1,6-dihydropyrimidin-5-yl)isonicotinonitrile], the half-maximal inhibitory concentration (IC50) was 5620 nM.

With `N#Cc1ccc(-c2c(N[C@@H]3CCCNC3)nc(N3CCOCC3)[nH]c2=O)nc1` [Example 223, (R)-6-(2-morpholino-6-oxo-4-(piperidin-3-ylamino)-1,6-dihydropyrimidin-5-yl)nicotinonitrile], the IC50 turned out to be 81 nM.

As for `O=c1[nH]c(N2CCOCC2)nc(N[C@@H]2CCCNC2)c1-c1ccc(C2CC2)cn1` [Example 224, (R)-5-(5-cyclopropylpyridin-2-yl)-2-morpholino-6-(piperidin-3-ylamino)pyrimidin-4(3H)-one], the IC50 came out at 512 nM.

Take `O=c1[nH]c(N2CCOCC2)nc(N[C@@H]2CCCNC2)c1-c1cc2ccccc2cn1` [Example 225, (R)-5-(isoquinolin-3-yl)-2-morpholino-6-(piperidin-3-ylamino)pyrimidin-4(3H)-one]: the IC50 was found to be 466 nM.

Consider `CCN1CCC(c2nc(N[C@@H]3CCCNC3)c(-c3nc4ccccc4s3)c(=O)[nH]2)CC1` [Example 227], for which the IC50 came to 1400 nM.

`CC(C)N1CCC(c2nc(N[C@@H]3CCCNC3)c(-c3nc4ccccc4s3)c(=O)[nH]2)CC1` [Example 228, (R)-5-(1,3-benzothiazol-2-yl)-6-[[(3R)-piperidin-3-yl]amino]-2-[1-(propan-2-yl)piperidin-4-yl]-3,4-dihydro-pyrimidin-4-one]: the IC50 came out at 660 nM.

Consider `O=c1[nH]c(C2CCN(CC3CC3)CC2)nc(N[C@@H]2CCCNC2)c1-c1nc2ccccc2s1` [Example 229, 5-(1,3-benzothiazol-2-yl)-2-[1-(cyclo-propylmethyl)piperidin-4-yl]-6-[[(3R)-piperidin-3-yl]amino]-3,4-dihydropyrimidin-4-one], for which the IC50 was determined as 340 nM.

Turning to `O=c1[nH]c(C2CCN(C3CCC3)CC2)nc(N[C@@H]2CCCNC2)c1-c1nc2ccccc2s1` [Example 230, (R)-5-(1,3-benzothiazol-2-yl)-2-[1-cyclo-butylpiperidin-4-yl)-6-[(piperidin-3-yl)amino]-3,4-dihydropyrimidin-4-one], the IC50 was 730 nM.

With `O=c1[nH]c(C2CCN(C3CCCC3)CC2)nc(N[C@@H]2CCCNC2)c1-c1nc2ccccc2s1` [Example 231, 5-(1,3-benzothiazol-2-yl)-2-(1-cyclo-pentylpiperidin-4-yl)-6-[[(3R)-piperidin-3-yl]amino]-3,4-dihydropyrimidin-4-one], the IC50 came out at 620 nM.

Consider `O=c1[nH]c(C2CCN(C3CCCCC3)CC2)nc(N[C@@H]2CCCNC2)c1-c1nc2ccccc2s1` [Example 232, (R)-5-(1,3-benzothiazol-2-yl)-2-(1-cyclo-hexylpiperidin-4-yl)-6-[(piperidin-3-yl)amino]-3,4-dihydropyrimidin-4-one], for which the IC50 was 450 nM.

For the compound `O=c1[nH]c(C2CCN(C3CCOC3)CC2)nc(N[C@@H]2CCCNC2)c1-c1nc2ccccc2s1` (stereo partly drawn) [Example 233, 5-(1,3-benzothiazol-2-yl)-2-[1-(oxolan-3-yl)piperidin-4-yl]-6-[[(3R)-piperidin-3-yl]amino]pyrimidin-4-ol], the IC50 worked out at 180 nM.

Turning to `O=c1[nH]c(C2CCN(C3CCOCC3)CC2)nc(N[C@@H]2CCCNC2)c1-c1nc2ccccc2s1` [Example 234, (R)-5-(benzo[d]thiazol-2-yl)-6-(piperidin-3-ylamino)-2-(1-(tetrahydro-2H-pyran-4-yl)piperidin-4-yl)pyrimidin-4(3H)-one], the IC50 turned out to be 440 nM.

For `CCS(=O)(=O)N1CCC(c2nc(N[C@@H]3CCCNC3)c(-c3nc4ccccc4s3)c(=O)[nH]2)CC1` [Example 236], the IC50 turned out to be 550 nM.

For the compound `CC(C)S(=O)(=O)N1CCC(c2nc(N[C@@H]3CCCNC3)c(-c3nc4ccccc4s3)c(=O)[nH]2)CC1` [Example 237, 5-(1,3-benzothiazol-2-yl)-6-[[(3R)-piperidin-3-yl]amino]-2-[1-(propane-2-sulfonyl)piperidin-4-yl]-3,4-dihydropyrimidin-4-one], the IC50 was determined as 210 nM.

Consider `O=c1[nH]c(C2CCN(S(=O)(=O)C3CC3)CC2)nc(N[C@@H]2CCCNC2)c1-c1nc2ccccc2s1` [Example 238, (R)-5-(1,3-benzothiazol-2-yl) 2-[1-(cyclopropane-sulfonyl)piperidin-4-yl]-6-[(piperidin-3-yl)amino]-3,4-dihydropyrimidin-4-one], for which the IC50 is 170 nM.

Turning to `CNC(=O)N1CCC(c2nc(N[C@@H]3CCCNC3)c(-c3nc4ccccc4s3)c(=O)[nH]2)CC1` [Example 240, (R)-4-[5-(1,3-benzo-thiazol-2-yl)-6-oxo-4-[[(3R)-piperidin-3-yl]amino]-1,6-dihydro-pyrimidin-2-yl]-N-methyl-piperidine-1-carboxamide], the IC50 was found to be 200 nM.

On to `O=c1[nH]c(C2CCN(c3cnccn3)CC2)nc(N[C@@H]2CCCNC2)c1-c1nc2ccccc2s1` [Example 243, (R)-5-(benzo[d]thiazol-2-yl)-6-(piperidin-3-ylamino)-2-(1-(pyrazin-2-yl)piperidin-4-yl)pyrimidin-4(3H)-one], for which the IC50 was determined as 180 nM.

For `O=c1[nH]c(C2CCN(c3ncccn3)CC2)nc(N[C@@H]2CCCNC2)c1-c1nc2ccccc2s1` [Example 244, (R)-5-(benzo[d]thiazol-2-yl)-6-(piperidin-3-ylamino)-2-(1-(pyrimidin-2-yl)piperidin-4-yl)pyrimidin-4(3H)-one], the IC50 came to 260 nM.

Regarding `O=c1[nH]c(C2CCN(c3cccnc3)CC2)nc(N[C@@H]2CCCNC2)c1-c1nc2ccccc2s1` [Example 245, (R)-5-(benzo[d]thiazol-2-yl)-6-(piperidin-3-ylamino)-2-(1-(pyridin-3-yl)piperidin-4-yl)pyrimidin-4(3H)-one], the IC50 stood at 89 nM.
